# Columns and labels:
# FM55 melanoma cells = test: Melanin assay (melanogenesis) in moderately-pigmented FM55 melanoma; type: cell-based, human; conditions: 72 h
# Protocol: Cells were then washed 3-times with sterile PBS and supplemented with 350 μl of either fresh serum-free RPMI medium (melanoma cells) or starved serum-free and BPE-free melanocyte medium (EM) and incubated at 37° C. and 5% CO2 for 24 h. Cells were then washed with sterile PBS 3-times and incubated with IBMX 1×10^-4 M at 37° C. and 5% CO2 for 12, 24, and 72 h. Cells were then gently washed 3-times with sterile PBS and fixed in ice-cold methanol for 10 minutes at -20° C. Slides were stored at -20° C. until immunocytochemistry was performed. […] The melanin standards were pipetted into a 96 well plate to produce a calibration curve for the assessment of melanin content in the test samples. 400 μl of 1 M NaOH was added to each cell pellet and dissolved on a heat block (100° C.) for 15 minutes. The pellets were vortexed vigorously and the solubilized pellet was pipetted into the same 96-well plate. The optical densities of the sample were read at […] on a DYNEX REVELATION 4.02 program. Melanin content of each test sample was read from the calibration curve. […] In addition IBMX and NH4Cl (positive melanocytic modulators) and niacinamide (negative modulator) were used as controls. […] Controls: Melanocytic modulators: IBMX (100 μM), NH4Cl (100 μM), and niacinamide (10 μM). (A) Melanin content was determined spectrophotometrically (475 nm) after sodium hydroxide solubilisation. […] (B). Results were expressed as the change in melanin content (pg/cell) compared to unstimulated control levels. Means are ±SEM of 3 independent experiments with *P<0.05, **P<0.01, ***P<0.001.
# tyrosinase [1] = test: DOPA oxidase detection for tyrosinase activity in FM55 melanoma; type: cell-based, human; conditions: 72 h
# Protocol: The cells were prepared for SDS-PAGE and transblotted onto PVDF membranes. 70 μg of un-reduced protein extract without boiling was pipetted into the appropriate wells of 8% SDS-PAGE gels. […] The L-DOPA reaction was stopped by washing the membrane in distilled water and the membrane was scanned. […] In addition IBMX and NH4Cl (positive melanocytic modulators) and niacinamide (negative modulator) were used as controls. […] Controls: Melanocytic modulators: IBMX (100 μM), NH4Cl (100 μM), and niacinamide (10 μM.). (A) Protein extracts were electroblotted and membranes stained with L-DOPA for the estimation of tyrosinase activity. (B) Densitometric scanning of band intensities and values were expressed as the fold increase compared to unstimulated control levels. Means are ±SEM of 3 independent experiments with *P<0.05, **P<0.01, ***P<0.001.
# tyrosinase [2] = test: DOPA oxidase detection for tyrosinase activity in pigmented normal human melanocytes; type: cell-based; conditions: 72 h
# Protocol: The cells were prepared for SDS-PAGE and transblotted onto PVDF membranes. 70 μg of un-reduced protein extract without boiling was pipetted into the appropriate wells of 8% SDS-PAGE gels. […] The L-DOPA reaction was stopped by washing the membrane in distilled water and the membrane was scanned. […] In addition IBMX and NH4Cl (positive melanocytic modulators) and niacinamide (negative modulator) were used as controls. […] Normal human epidermal melanocytes (Female-52; p5) were treated for 72 h with L-18 (0.001%), L-19 (1%), L-20 (0.5%), L-21 (10 μg/ml), LVMH-22 (1%) and L-23 (0.05 μg/ml). Controls: Melanocytic modulators: IBMX (100 μM), NH4Cl (100 μM), and niacinamide (10 μM). (A) Protein extracts were electroblotted and membranes stained with L-DOPA for the estimation of tyrosinase activity.
# [3] = test system: Normal human epidermal melanocytes (F52; p5); test: Melanin assay (melanogenesis) in normal pigmented human melanocytes; type: cell-based; conditions: 72 h
# Protocol: Cells were then washed 3-times with sterile PBS and supplemented with 350 μl of either fresh serum-free RPMI medium (melanoma cells) or starved serum-free and BPE-free melanocyte medium (EM) and incubated at 37° C. and 5% CO2 for 24 h. Cells were then washed with sterile PBS 3-times and incubated with IBMX 1×10^-4 M at 37° C. and 5% CO2 for 12, 24, and 72 h. Cells were then gently washed 3-times with sterile PBS and fixed in ice-cold methanol for 10 minutes at -20° C. Slides were stored at -20° C. until immunocytochemistry was performed. […] The melanin standards were pipetted into a 96 well plate to produce a calibration curve for the assessment of melanin content in the test samples. 400 μl of 1 M NaOH was added to each cell pellet and dissolved on a heat block (100° C.) for 15 minutes. The pellets were vortexed vigorously and the solubilized pellet was pipetted into the same 96-well plate. The optical densities of the sample were read at […] on a DYNEX REVELATION 4.02 program. Melanin content of each test sample was read from the calibration curve. […] In addition IBMX and NH4Cl (positive melanocytic modulators) and niacinamide (negative modulator) were used as controls. Visible change was not particularly evident in normal melanocyte due to their already high basal melanin levels (FIG. 1). By contrast, visible change was evident in melanoma cells basal melanin levels were low (FIG. 2). […] Normal human epidermal melanocytes (Female-52; p5) were treated for 72 h with L-18 (0.001%), L-19 (1%), L-20 (0.5%), L-21 (10 μg/ml), L-22 (1%) and L-23 (0.05 μg/ml). Controls: Melanocytic modulators: IBMX (100 μM), NH4Cl (100 μM), and niacinamide (10 μM). (A) Melanin content was determined spectro-photometrically (475 nm) after sodium hydroxide solubilise (B) Visible change was not particularly evident in these cells due to their already high basal melanin levels. Results were expressed as change in melanin content (pg/cell) compared to unstimulated control levels. Means are ±SEM of 3 independent experiments with *P<0.05, **P<0.01, ***P<0.001. NS-Not Significant
# [4] = test system: melanosome transfer from melanocytes to keratinocytes; test: Melanosome transfer after knockdown of Myo-X expression in epidermal melanocytes-keratinocytes co-culture; type: cell-based, human; conditions: Myo-X-silenced melanocytes cultured with normal keratinocytes 24 h; vs non-silencing control siRNA
# Protocol: (§1) Knockdown of Myo-X using siRNA: A synthetic siRNA targeting human Myo-X (5′-[…]-3′) (SEQ ID No 1) and a non-silencing control, consisting of siRNA that has no known homology with mammalian genes (5′-[…]-3′) (SEQ ID No 2) was obtained from Qiagen, Valencia, Calif. A day before siRNA treatment, 5×10^5 epidermal melanocytes per well were plated onto six-well plates at 50-60% confluency and incubated at 37° C. for 12 h. Cells were then treated for 12 h with a final concentration of 25 nM siRNA by using HiPerFect Transfection Reagent (Qiagen, Valencia, Calif.) following the manufacturer's instructions. Fluorescence microscopy was used to verify that approximately 100% of the cells (using non-silencing control labelled with alexa fluor 488 labels) had taken up the siRNA. At 12 h, the cells from each well were replated into 8-well Lab-Tek® chamber slides. For co-culture studies siRNA treated melanocytes were seeded with normal keratinocytes (passage 2) in 8-well Lab-Tek® chamber slides at a cell density of 2×10^4 cells/well and in a ratio of 1 siRNA treated melanocyte to 10 normal keratinocytes. […]
# Using this assay the rate of melanosome transfer from melanocytes to keratinocytes with non-silencing control siRNA conditions was determined (FIG. 8). […]
# human Myo-X = test: Knockdown of Myo-X using siRNA in epidermal melanocytes (western blot, immunofluorescence); type: cell-based
# Protocol: as §1, with “keratinocytes. At 24 h the co-culture were processed for double Immunofluorescence staining with gp100 and cytokeratin or Myo-X to study of the influence of gene knockdown on melanosome transfer, and parallel samples were assayed by immunofluorescence staining and western blot analysis to verify gene knockdown.” for “keratinocytes.”
# [5] = L-18 0.001%, L-19 1%, L-20 0.5%, L-21 10 μg/ml, L-22 1%, L-23 0.05 μg/ml, IBMX 100 μM, NH4Cl 100 μM, niacinamide 10 μM, vs basal
Molecule,"Changes in melanin levels, FM55 % change (FM55 melanoma cells; [5])","Melanin content, FM55 (pg/cell) (FM55 melanoma cells; same doses as E3, basal 9.92)","effect on melanin content compared with basal levels (FM55 melanoma cells; FM55 melanoma cells, doses as E3)","Changes in tyrosinase activity, FM55 % change (tyrosinase [1]; same doses as E5, vs basal)","effect on tyrosinase (dopa oxidase) activity compared with basal levels (tyrosinase [1]; FM55 melanoma cells, doses as E5)","Changes in tyrosinase activity, F52 EMc % change (tyrosinase [2]; [5])","effect on tyrosinase (dopa oxidase) activity compared with basal levels (tyrosinase [2]; normal melanocytes (EM), doses as E5)","Changes in melanin levels, F52 EM % change [3, 5]","Melanin content, F52 EM (pg/cell) ([3]; same doses as E1, basal 35.63)",melanosome transfer reduced by [4] [%],"expression of Myo-X compared to non-silencing control siRNA (human Myo-X; 25 nM siRNA, 12 h, immunofluorescence)",filopodia in Myo-X-silenced melanocytes (human Myo-X; anti-gp100 double-immunolabelling)
Cl.N [NH4Cl],+478.82%,(56.83) pg/cell,visible increases in melanogenesis,+408.27%,dramatic increase in dopa oxidase activity of tyrosinase,+159.63%,dramatic increase in dopa oxidase activity of tyrosinase,+166.17%,(94.83) pg/cell,–,–,–
"siRNA targeting human Myo-X: synthetic siRNA targeting human Myo-X (5′-CAGCGGTATAAGAGAAATCAA-3′), obtained from Qiagen (listed as DNA, chemistry not given here; listed as Homo sapiens)",–,–,–,–,–,–,–,–,–,80,almost completely inhibited,absence of filopodia

# Source: patent publication US9668960B2, “Methods useful in studying or modulating skin or hair pigmentation, plant extracts for use in compositions and cosmetic care method” (L V M H RECHERCHE, priority 2008, dated 2017)
